Measurements as given in patent US20230372498A1, “PLK1 SELECTIVE DEGRADATION INDUCING COMPOUND” (UPPTHERA, priority 2020, published 2023).

Target: T1, PLK1 (Homo sapiens, UniProt P53350)
T1 construct: endogenous in cells; host or cells: HeLa
Experiment: PLK1 protein degradation in HeLa cells, Western blotting (PLK1/GAPDH ratio)
Assay type: cell-based
Settings: 6 hours compound incubation; for DC50: measured only if the grade of Dmax is A or B; for Dmax: thymidine block and release, 10 points three-fold from 3 μM, PLK1 to GAPDH ratio, read-out: Dmax
Procedure, shortened: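 PLK1 level measured by Western blot as PLK1/GAPDH in HeLa lysates (15 μg protein per lane). Cells were blocked with 2 mM thymidine 24 h, released 4 h, and exposed 6 h to compound, 10 concentrations, 3-fold steps, top 3 μM.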

T1 sequence (P53350 whole entry): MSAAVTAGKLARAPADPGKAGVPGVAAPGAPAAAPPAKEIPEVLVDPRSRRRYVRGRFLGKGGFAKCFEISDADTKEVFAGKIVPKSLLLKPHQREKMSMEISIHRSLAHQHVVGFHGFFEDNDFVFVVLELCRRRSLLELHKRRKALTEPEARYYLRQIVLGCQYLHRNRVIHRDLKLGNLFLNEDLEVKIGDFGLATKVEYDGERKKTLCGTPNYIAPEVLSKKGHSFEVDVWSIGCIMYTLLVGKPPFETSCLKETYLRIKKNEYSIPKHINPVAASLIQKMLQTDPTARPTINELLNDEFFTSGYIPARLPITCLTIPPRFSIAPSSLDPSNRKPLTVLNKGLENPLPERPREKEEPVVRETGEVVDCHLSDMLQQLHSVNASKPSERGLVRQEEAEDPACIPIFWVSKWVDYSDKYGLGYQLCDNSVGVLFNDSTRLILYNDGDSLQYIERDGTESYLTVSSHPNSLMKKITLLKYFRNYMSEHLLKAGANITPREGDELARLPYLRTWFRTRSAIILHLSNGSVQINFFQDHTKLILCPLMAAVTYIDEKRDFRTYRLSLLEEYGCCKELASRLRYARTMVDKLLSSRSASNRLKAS

Row | Compound | DC50 | Dmax
1 | COc1cc(C(=O)NC2CCN(C(=O)CCCNc3cccc4c3C(=O)N(C3CCC(=O)NC3=O)C4=O)CC2)c(F)cc1Nc1ncc2c(n1)N(C1CCCC1)CC(F)(F)C(=O)N2C (stereo not drawn) [Compound 39, 4-((9-cyclopentyl-7,7-difluoro-5-methyl-6-oxo-6,7,8,9-tetrahydro-5H-pyrimido[4,5-b][1,4]diazepin-2-yl)amino)-N-(1-(4-((2-(2,6-dioxopiperidin-3-yl)-1,3-dioxoisoindolin-4-yl)amino)butanoyl)piperidin-4-yl)-2-fluoro-5-methoxybenzamide] | ≤ 50 nM | ≥ 80%
2 | COc1cc(C(=O)NC2CCN(Cc3ccc(OCCNc4cccc5c4C(=O)N(C4CCC(=O)NC4=O)C5=O)cc3)CC2)c(F)cc1Nc1ncc2c(n1)N(C1CCCC1)CC(F)(F)C(=O)N2C (stereo not drawn) [Compound 40, 4-((9-cyclopentyl-7,7-difluoro-5-methyl-6-oxo-6,7,8,9-tetrahydro-5H-pyrimido[4,5-b][1,4]diazepin-2-yl)amino)-N-(1-(4-(2-((2-(2,6-dioxopiperidin-3-yl)-1,3-dioxoisoindolin-4-yl)amino)ethoxy)benzyl)piperidin-4-yl)-2-fluoro-5-methoxybenzamide] | ≤ 500 nM | 60 to 80%
3 | COc1cc(C(=O)NC2CCN(CCCn3cnc(CNc4cccc5c4C(=O)N(C4CCC(=O)NC4=O)C5=O)c3)CC2)c(F)cc1Nc1ncc2c(n1)N(C1CCCC1)CC(F)(F)C(=O)N2C (stereo not drawn) [Compound 43] | ≤ 50 nM | ≥ 80%
4 | COc1cc(C(=O)NC2CCN(Cc3cn(CCOCCNc4cccc5c4C(=O)N(C4CCC(=O)NC4=O)C5=O)nn3)CC2)c(F)cc1Nc1ncc2c(n1)N(C1CCCC1)CC(F)(F)C(=O)N2C (stereo not drawn) [Compound 44, 4-((9-cyclopentyl-7,7-difluoro-5-methyl-6-oxo-6,7,8,9-tetrahydro-5H-pyrimido[4,5-b][1,4]diazepin-2-yl)amino)-N-(1-((1-(2-(2-((2-(2,6-dioxopiperidin-3-yl)-1,3-dioxoisoindolin-4-yl)amino)ethoxy)ethyl)-1H-1,2,3-triazol-4-yl)methyl)piperidin-4-yl)-2-fluoro-5-methoxybenzamide] | ≤ 50 nM | ≥ 80%
5 | COc1cc(C(=O)NC2CCN(Cc3cn(CCCC(=O)Nc4cccc5c4C(=O)N(C4CCC(=O)NC4=O)C5=O)nn3)CC2)c(F)cc1Nc1ncc2c(n1)N(C1CCCC1)CC(F)(F)C(=O)N2C (stereo not drawn) [Compound 46, 4-((9-cyclopentyl-7,7-difluoro-5-methyl-6-oxo-6,7,8,9-tetrahydro-5H-pyrimido[4,5-b][1,4]diazepin-2-yl)amino)-N-(1-((1-(4-((2-(2,6-dioxopiperidin-3-yl)-1,3-dioxoisoindolin-4-yl)amino)-4-oxobutyl)-1H-1,2,3-triazol-4-yl)methyl)piperidin-4-yl)-2-fluoro-5-methoxybenzamide] |  | < 60%
6 | COc1cc(C(=O)NC2CCN(C[C@@H]3C[C@@H]3CNc3cccc4c3C(=O)N(C3CCC(=O)NC3=O)C4=O)CC2)c(F)cc1Nc1ncc2c(n1)N(C1CCCC1)CC(F)(F)C(=O)N2C (stereo partly drawn) [Compound 48, 4-((9-cyclopentyl-7,7-difluoro-5-methyl-6-oxo-6,7,8,9-tetrahydro-5H-pyrimido[4,5-b][1,4]diazepin-2-yl)amino)-N-(1-(((1R,2S)-2-(((2-(2,6-dioxopiperidin-3-yl)-1,3-dioxoisoindolin-4-yl)amino)methyl)cyclopropyl)methyl)piperidin-4-yl)-2-fluoro-5-methoxybenzamide] | ≤ 500 nM | 60 to 80%
7 | COc1cc(C(=O)NC2CCN(CCOCCN(C)CCNc3cccc4c3C(=O)N(C3CCC(=O)NC3=O)C4=O)CC2)c(F)cc1Nc1ncc2c(n1)N(C1CCCC1)CC(F)(F)C(=O)N2C (stereo not drawn) [Compound 49, 4-((9-cyclopentyl-7,7-difluoro-5-methyl-6-oxo-6,7,8,9-tetrahydro-5H-pyrimido[4,5-b][1,4]diazepin-2-yl)amino)-N-(1-(2-(2-((2-((2-(2,6-dioxopiperidin-3-yl)-1,3-dioxoisoindolin-4-yl)amino)ethyl)(methyl)amino)ethoxy)ethyl)piperidin-4-yl)-2-fluoro-5-methoxybenzamide] | ≤ 500 nM | 60 to 80%
8 | COc1cc(C(=O)NC2CCN(CCOCCOCCNc3ccc4c(c3)C(=O)N(C3CCC(=O)NC3=O)C4=O)CC2)c(F)cc1Nc1ncc2c(n1)N(C1CCCC1)CC(F)(F)C(=O)N2C (stereo not drawn) [Compound 50, 4-((9-cyclopentyl-7,7-difluoro-5-methyl-6-oxo-6,7,8,9-tetrahydro-5H-pyrimido[4,5-b][1,4]diazepin-2-yl)amino)-N-(1-(2-(2-(2-((2-(2,6-dioxopiperidin-3-yl)-1,3-dioxoisoindolin-5-yl)amino)ethoxy)ethoxy)ethyl)piperidin-4-yl)-2-fluoro-5-methoxybenzamide] | ≤ 50 nM | ≥ 80%
9 | COc1cc(C(=O)NC2CCN(CCOCCOCCOCCOCCNc3ccc4c(c3)C(=O)N(C3CCC(=O)NC3=O)C4=O)CC2)c(F)cc1Nc1ncc2c(n1)N(C1CCCC1)CC(F)(F)C(=O)N2C (stereo not drawn) [Compound 51, 4-((9-cyclopentyl-7,7-difluoro-5-methyl-6-oxo-6,7,8,9-tetrahydro-5H-pyrimido[4,5-b][1,4]diazepin-2-yl)amino)-N-(1-(14-((2-(2,6-dioxopiperidin-3-yl)-1,3-dioxoisoindolin-5-yl)amino)-3,6,9,12-tetraoxatetradecyl)piperidin-4-yl)-2-fluoro-5-methoxybenzamide] | ≤ 50 nM | ≥ 80%
10 | COc1cc(C(=O)NC2CCN(CCOCCOCCOCCOCCCc3cccc4c3C(=O)N(C3CCC(=O)NC3=O)C4=O)CC2)c(F)cc1Nc1ncc2c(n1)N(C1CCCC1)CC(F)(F)C(=O)N2C (stereo not drawn) [Compound 53, 4-((9-cyclopentyl-7,7-difluoro-5-methyl-6-oxo-6,7,8,9-tetrahydro-5H-pyrimido[4,5-b][1,4]diazepin-2-yl)amino)-N-(1-(15-(2-(2,6-dioxopiperidin-3-yl)-1,3-dioxoisoindolin-4-yl)-3,6,9,12-tetraoxapentadecyl)piperidin-4-yl)-2-fluoro-5-methoxybenzamide] | ≤ 50 nM | ≥ 80%

Second part, the compound after the results:

Row | DC50 | Dmax | Compound
11 | ≤ 500 nM | 60 to 80% | COc1cc(C(=O)NC2CCN(CCCCCCCC(=O)Nc3cccc4c3C(=O)N(C3CCC(=O)NC3=O)C4=O)CC2)c(F)cc1Nc1ncc2c(n1)N(C1CCCC1)CC(F)(F)C(=O)N2C (stereo not drawn) [Compound 38, 4-((9-cyclopentyl-7,7-difluoro-5-methyl-6-oxo-6,7,8,9-tetrahydro-5H-pyrimido[4,5-b][1,4]diazepin-2-yl)amino)-N-(1-(8-((2-(2,6-dioxopiperidin-3-yl)-1,3-dioxoisoindolin-4-yl)amino)-8-oxooctyl)piperidin-4-yl)-2-fluoro-5-methoxybenzamide]
12 | ≤ 50 nM | ≥ 80% | COc1cc(C(=O)NC2CCN(Cc3ccc(OCCOCCOCCNc4cccc5c4C(=O)N(C4CCC(=O)NC4=O)C5=O)cc3)CC2)c(F)cc1Nc1ncc2c(n1)N(C1CCCC1)CC(F)(F)C(=O)N2C (stereo not drawn) [Compound 41, 4-((9-cyclopentyl-7,7-difluoro-5-methyl-6-oxo-6,7,8,9-tetrahydro-5H-pyrimido[4,5-b][1,4]diazepin-2-yl)amino)-N-(1-(4-(2-(2-(2-((2-(2,6-dioxopiperidin-3-yl)-1,3-dioxoisoindolin-4-yl)amino)ethoxy)ethoxy)ethoxy)benzyl)piperidin-4-yl)-2-fluoro-5-methoxybenzamide]
13 | > 500 nM | 60 to 80% | COc1cc(C(=O)NC2CCN(CCc3ccc(CC(=O)Nc4cccc5c4C(=O)N(C4CCC(=O)NC4=O)C5=O)cc3)CC2)c(F)cc1Nc1ncc2c(n1)N(C1CCCC1)CC(F)(F)C(=O)N2C (stereo not drawn) [Compound 42, 4-((9-cyclopentyl-7,7-difluoro-5-methyl-6-oxo-6,7,8,9-tetrahydro-5H-pyrimido[4,5-b][1,4]diazepin-2-yl)amino)-N-(1-(4-(2-((2-(2,6-dioxopiperidin-3-yl)-1,3-dioxoisoindolin-4-yl)amino)-2-oxoethyl)phenethyl)piperidin-4-yl)-2-fluoro-5-methoxybenzamide]
14 | ≤ 50 nM | ≥ 80% | COc1cc(C(=O)NC2CCN(Cc3cn(CCOCCOCCOCCNc4cccc5c4C(=O)N(C4CCC(=O)NC4=O)C5=O)nn3)CC2)c(F)cc1Nc1ncc2c(n1)N(C1CCCC1)CC(F)(F)C(=O)N2C (stereo not drawn) [Compound 45, 4-((9-cyclopentyl-7,7-difluoro-5-methyl-6-oxo-6,7,8,9-tetrahydro-5H-pyrimido[4,5-b][1,4]diazepin-2-yl)amino)-N-(1-((1-(2-(2-(2-(2-((2-(2,6-dioxopiperidin-3-yl)-1,3-dioxoisoindolin-4-yl)amino)ethoxy)ethoxy)ethoxy)ethyl)-1H-1,2,3-triazol-4-yl)methyl)piperidin-4-yl)-2-fluoro-5-methoxybenzamide]
15 |  | < 60% | COc1cc(C(=O)NC2CCN(Cc3cn(CCNC(=O)CNc4cccc5c4C(=O)N(C4CCC(=O)NC4=O)C5=O)nn3)CC2)c(F)cc1Nc1ncc2c(n1)N(C1CCCC1)CC(F)(F)C(=O)N2C (stereo not drawn) [Compound 47, 4-((9-cyclopentyl-7,7-difluoro-5-methyl-6-oxo-6,7,8,9-tetrahydro-5H-pyrimido[4,5-b][1,4]diazepin-2-yl)amino)-N-(1-((1-(2-(2-((2-(2,6-dioxopiperidin-3-yl)-1,3-dioxoisoindolin-4-yl)amino)acetamido)ethyl)-1H-1,2,3-triazol-4-yl)methyl)piperidin-4-yl)-2-fluoro-5-methoxybenzamide]
16 | ≤ 50 nM | ≥ 80% | COc1cc(C(=O)NC2CCN(CCOCCOCCOCCOCC#Cc3cccc4c3C(=O)N(C3CCC(=O)NC3=O)C4=O)CC2)c(F)cc1Nc1ncc2c(n1)N(C1CCCC1)CC(F)(F)C(=O)N2C (stereo not drawn) [Compound 52, 4-((9-cyclopentyl-7,7-difluoro-5-methyl-6-oxo-6,7,8,9-tetrahydro-5H-pyrimido[4,5-b][1,4]diazepin-2-yl)amino)-N-(1-(15-(2-(2,6-dioxopiperidin-3-yl)-1,3-dioxoisoindolin-4-yl)-3,6,9,12-tetraoxapentadec-14-yn-1-yl)piperidin-4-yl)-2-fluoro-5-methoxybenzamide]
